Reference: patent US4442044A, “Process for preparing monoesters and diesters of N-alkyl substituted amino methyl phosphonic acid” (priority 1983, dated 1984)

Key:
Experiment in all cases: post-emergent herbicidal activity, greenhouse
Format in all cases: in vivo
Barnyardgrass = test system: Barnyardgrass
How it was run: (§1)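 Seeds or propagules sown in compacted top soil, grown 2–3 weeks in greenhouse, then sprayed with compound solution/suspension containing ~0.4% emulsifier at tabulated rates. Injury scored visually versus untreated controls at ~2 and 4 weeks after treatment, expressed as a herbicidal activity index.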

Crabgrass = details: Table II
How it was run: as §1

Sorghum = details: Table II
How it was run: as §1

Wheat = details: Table II
How it was run: as §1

Quackgrass = details: Table I, 4 WAT
How it was run: as §1

Velvetleaf = test system: Velvetleaf
How it was run: as §1

Downy Brome = test system: Downy Brome
How it was run: as §1

Canada Thistle = details: Table I, 4 WAT
How it was run: as §1

Morningglory = test system: Morningglory
How it was run: as §1

Johnsongrass = details: Table I, 4 WAT
How it was run: as §1

Rice = details: Table II
How it was run: as §1

Wild Buckwheat = details: Table II
How it was run: as §1

Yellow Nutsedge = details: Table I, 4 WAT
How it was run: as §1

Lambsquarters = test system: Lambsquarters
How it was run: as §1

Hemp Sesbania = details: Table II
How it was run: as §1

Cocklebur = test system: Cocklebur
How it was run: as §1

Sugar Beet = details: Table II
How it was run: as §1

Soybean = details: Table II
How it was run: as §1

Panicum Spp = details: Table II
How it was run: as §1

Smartweed = test system: Smartweed
How it was run: as §1

CCOC(=O)CNCP(=O)(O)OC(C)C(=O)OC (stereo not drawn) [Example 28, propanoic acid, 2-[[[[(2-ethoxy-2-oxoethyl)amino]methyl]hydroxyphosphinyl]oxy]-, methyl ester]
post-emergent herbicidal activity index (Barnyardgrass; Table I, 4 WAT, 5.6 kg/h): 2 (50-74% control)
post-emergent herbicidal activity index (Barnyardgrass; Table I, 4 WAT, 11.2 kg/h): 2 (50-74% control)
post-emergent herbicidal activity index (Barnyardgrass; Table II, 2 WAT, 1.12 kg/h): 1 (25-49% control)
post-emergent herbicidal activity index (Barnyardgrass; Table II, 4 WAT, 5.6 kg/h): 3 (75-99% control)
post-emergent herbicidal activity index (Crabgrass; 2 WAT, 1.12 kg/h): 2 (50-74% control)
post-emergent herbicidal activity index (Crabgrass; 4 WAT, 5.6 kg/h): 3 (75-99% control)
post-emergent herbicidal activity index (Sorghum; 2 WAT, 1.12 kg/h): 0 (0-24% control)
post-emergent herbicidal activity index (Sorghum; 4 WAT, 5.6 kg/h): 2 (50-74% control)
post-emergent herbicidal activity index (Wheat; 2 WAT, 1.12 kg/h): 0 (0-24% control)
post-emergent herbicidal activity index (Wheat; 4 WAT, 5.6 kg/h): 1 (25-49% control)
post-emergent herbicidal activity index (Quackgrass; 5.6 kg/h): 0 (0-24% control)
post-emergent herbicidal activity index (Quackgrass; 11.2 kg/h): 2 (50-74% control)
post-emergent herbicidal activity index (Velvetleaf; Table I, 4 WAT, 5.6 kg/h): 0 (0-24% control)
post-emergent herbicidal activity index (Velvetleaf; Table I, 4 WAT, 11.2 kg/h): 2 (50-74% control)
post-emergent herbicidal activity index (Velvetleaf; Table II, 2 WAT, 1.12 kg/h): 0 (0-24% control)
post-emergent herbicidal activity index (Velvetleaf; Table II, 4 WAT, 5.6 kg/h): 0 (0-24% control)
post-emergent herbicidal activity index (Downy Brome; Table I, 4 WAT, 5.6 kg/h): 1 (25-49% control)
post-emergent herbicidal activity index (Downy Brome; Table I, 4 WAT, 11.2 kg/h): 1 (25-49% control)
post-emergent herbicidal activity index (Downy Brome; Table II, 2 WAT, 1.12 kg/h): 0 (0-24% control)
post-emergent herbicidal activity index (Downy Brome; Table II, 4 WAT, 5.6 kg/h): 0 (0-24% control)
post-emergent herbicidal activity index (Canada Thistle; 5.6 kg/h): 1 (25-49% control)
post-emergent herbicidal activity index (Canada Thistle; 11.2 kg/h): 1 (25-49% control)
post-emergent herbicidal activity index (Morningglory; Table I, 4 WAT, 5.6 kg/h): 1 (25-49% control)
post-emergent herbicidal activity index (Morningglory; Table I, 4 WAT, 11.2 kg/h): 3 (75-99% control)
post-emergent herbicidal activity index (Morningglory; Table II, 2 WAT, 1.12 kg/h): 1 (25-49% control)
post-emergent herbicidal activity index (Morningglory; Table II, 4 WAT, 5.6 kg/h): 2 (50-74% control)
post-emergent herbicidal activity index (Johnsongrass; 5.6 kg/h): 2 (50-74% control)
post-emergent herbicidal activity index (Johnsongrass; 11.2 kg/h): 3 (75-99% control)
post-emergent herbicidal activity index (Rice; 2 WAT, 1.12 kg/h): 0 (0-24% control)
post-emergent herbicidal activity index (Rice; 4 WAT, 5.6 kg/h): 2 (50-74% control)
post-emergent herbicidal activity index (Wild Buckwheat; 2 WAT, 1.12 kg/h): 0 (0-24% control)
post-emergent herbicidal activity index (Wild Buckwheat; 4 WAT, 5.6 kg/h): 0 (0-24% control)
post-emergent herbicidal activity index (Yellow Nutsedge; 5.6 kg/h): 1 (25-49% control)
post-emergent herbicidal activity index (Yellow Nutsedge; 11.2 kg/h): 3 (75-99% control)
post-emergent herbicidal activity index (Lambsquarters; Table I, 4 WAT, 5.6 kg/h): 0 (0-24% control)
post-emergent herbicidal activity index (Lambsquarters; Table I, 4 WAT, 11.2 kg/h): 3 (75-99% control)
post-emergent herbicidal activity index (Lambsquarters; Table II, 2 WAT, 1.12 kg/h): 0 (0-24% control)
post-emergent herbicidal activity index (Lambsquarters; Table II, 4 WAT, 5.6 kg/h): 1 (25-49% control)
post-emergent herbicidal activity index (Hemp Sesbania; 2 WAT, 1.12 kg/h): 0 (0-24% control)
post-emergent herbicidal activity index (Hemp Sesbania; 4 WAT, 5.6 kg/h): 3 (75-99% control)
post-emergent herbicidal activity index (Cocklebur; Table I, 4 WAT, 5.6 kg/h): 1 (25-49% control)
post-emergent herbicidal activity index (Cocklebur; Table I, 4 WAT, 11.2 kg/h): 2 (50-74% control)
post-emergent herbicidal activity index (Cocklebur; Table II, 2 WAT, 1.12 kg/h): 0 (0-24% control)
post-emergent herbicidal activity index (Cocklebur; Table II, 4 WAT, 5.6 kg/h): 2 (50-74% control)
post-emergent herbicidal activity index (Sugar Beet; 2 WAT, 1.12 kg/h): 0 (0-24% control)
post-emergent herbicidal activity index (Sugar Beet; 4 WAT, 5.6 kg/h): 0 (0-24% control)
post-emergent herbicidal activity index (Soybean; 2 WAT, 1.12 kg/h): 1 (25-49% control)
post-emergent herbicidal activity index (Soybean; 4 WAT, 5.6 kg/h): 1 (25-49% control)
post-emergent herbicidal activity index (Panicum Spp; 2 WAT, 1.12 kg/h): 0 (0-24% control)
post-emergent herbicidal activity index (Panicum Spp; 4 WAT, 5.6 kg/h): 2 (50-74% control)
post-emergent herbicidal activity index (Smartweed; Table I, 4 WAT, 5.6 kg/h): 0 (0-24% control)
post-emergent herbicidal activity index (Smartweed; Table I, 4 WAT, 11.2 kg/h): 3 (75-99% control)
post-emergent herbicidal activity index (Smartweed; Table II, 2 WAT, 1.12 kg/h): 0 (0-24% control)
post-emergent herbicidal activity index (Smartweed; Table II, 4 WAT, 5.6 kg/h): 1 (25-49% control)
